Measurements published in article PMC11429909, “Protein Structure Inspired Discovery of a Novel Inducer of Anoikis in Human Melanoma” (Cancers, 2024).
“Also recorded” adds a separate entry of the source.

How the values were obtained:
Format in all cases: cell-based, human
M14 cells = test: Cell cycle analysis by flow cytometry, M14; conditions: 20 nM, eight days
Method: A total of 1 × 10^4 M14 cells and 1 × 10^4 SK-MEL-5 cells were seeded into 10 cm culture dishes. Twenty-four hours later, cells were treated in replicates of N = 3, with Dxr2-017 at 20 nM for M14 and 50 nM for SK-MEL-5, or vehicle for controls for a total of eight days, with replacement of media, along with Dxr2-017 or vehicle, at day five. Cells were then collected, filtered to obtain single-cell suspensions, equal numbers of cells were fixed in 1 mL of 70% ethanol at 4 °C for 1 h, washed with PBS, and resuspended in 1 mL of Telford reagent (1 mM EDTA disodium salt, 2.5 U/mL RNAse A, 75 µM Propidium Iodide, and 0.1% Triton X-100 in PBS), and then incubated at 4 °C overnight. Cells were analyzed by flow cytometry (FACSCalibur analyzer, BD Biosciences). Cells were gated on forward scatter (FSC) versus side scatter (SCC) to remove debris, followed by gating of single cells using PI (FL2)-Area versus PI (FL2)-Width. Cell cycle analysis was performed on the PI (FL2)-Area parameter, and the percentages of cells within G0/G1, S, and G2/M phases were determined using Modfit LT 4.0.5.

SK-MEL-5 = test: Eight-day colony formation assay, melanoma SK-MEL-5
Method: In addition to screens, eight-day colony formation assays were conducted for certain experiments, as denoted. When measuring the effect of 5-fluorouracil (5FU) on HT29 colon cancer cells, the following final 5FU concentrations were examined: 0 (DMSO only), 0.0012, 0.012, 0.12, 0.82, 5.7, 20, and 40 µM. When measuring the effect of Dxr2-017 on melanoma cell growth, the following concentrations were examined: 0 (DMSO only), 0.001, 0.01, 0.1, 1.0, and 10.0 µM. Melanoma studies were performed on M14 and SK-MEL-5 human melanoma cell lines. For each Dxr2-017 concentration for each cell line, there were N = 3 replicates, and experiments were performed a total of 3 separate times (each with N = 3 replicates). The IC50 values were calculated using nonlinear regression analysis. Data from individual experiments were log-transformed and fitted to a dose–response curve using the four-parameter logistic model of GraphPad Prism 10 software. The IC50 values were determined using the dose–response inhibition function. IC50 values from each of three different experiments were used to calculate mean ± SEM.

SK-MEL-5 cells = test: Adherent versus floating cell quantification from images, SK-MEL-5; conditions: 20 µM, 3-day treatment, mean ± SEM (N = 4), controls 19.5 ± 3.2%
Method: After treatment of M14 and SK-MEL-5 cells with different concentrations of Dxr2-017 or vehicle for 3 or 8 days, as denoted, cell images were captured at 20X in a transmitted light channel using the EVOS™ M5000 Imaging System (Invitrogen (Waltham, MA, USA)). Western blots were performed as previously described by us. Briefly, cells were collected and lysed using RIPA lysis buffer (25 mM Tris-HCl pH 7.6, 150 mM NaCl, 1% NP-40, 1% sodium deoxycholate, and 0.1% SDS; Thermo Scientific^TM (Waltham, MA, USA), #89900), supplemented with protease and phosphatase inhibitor cocktail (Thermo Scientific^TM, #78442) and 1 mM of PMSF. […]
Figure 8 Dxr2-017 inhibits melanoma cell growth through induction of anoikis. […] Data are expressed as the percent of untreated control and are the mean ± SEM of three separate experiments. […] M14 and SK-MEL-5 cells were treated for eight days with 20 nM and 50 nM of Dxr2-017, respectively, and the phase of the cell cycle was determined by flow cytometry. […] (D) Adherent and floating cells were quantified from captured images. Data are the mean ± SEM (N = 4), expressed as a percentage to total cells. * Denotes p-value ≤ 0.05 compared to respective floating or attached cells. […]
We then assessed whether Dxr2-017 induced apoptosis. […]

cleaved caspase 3 [1] = test: Western blot for cleaved caspase 3, SK-MEL-5; conditions: up to 20 µM, three days
Method: (§1) After treatment of M14 and SK-MEL-5 cells with different concentrations of Dxr2-017 or vehicle for 3 or 8 days, as denoted, cell images were captured at 20X in a transmitted light channel using the EVOS™ M5000 Imaging System (Invitrogen (Waltham, MA, USA)). Western blots were performed as previously described by us. Briefly, cells were collected and lysed using RIPA lysis buffer (25 mM Tris-HCl pH 7.6, 150 mM NaCl, 1% NP-40, 1% sodium deoxycholate, and 0.1% SDS; Thermo Scientific^TM (Waltham, MA, USA), #89900), supplemented with protease and phosphatase inhibitor cocktail (Thermo Scientific^TM, #78442) and 1 mM of PMSF. Resultant Western blots were probed using antibodies against cleaved caspase 3 (Cell Signaling Technology (Danvers, MA, USA), #9664), pan-cadherin (Cell Signaling Technology, #4068), and β-actin (Santa Cruz (Santa Cruz, CA, USA), #sc-47778).
(§2) We then assessed whether Dxr2-017 induced apoptosis. We treated M14 and SK-MEL-5 cells with Dxr2-017 for three days at concentrations of up 10 and 20 µM, respectively, and measured cleaved caspase 3 using Western blot. […] In this assay, cells were grown in six-well plates and washed prior to lysis, and thus only adherent cells remained. […] Adherent cells are spread out and fusiform shaped, while detached/floating cells are round, as previously reported by us. […]

pan-cadherin = test: Western blot for pan-cadherin, SK-MEL-5
Method: as §1
These findings led us to compare cleaved caspase 3 between adherent cells and floating cells. Cleaved caspase 3 is an indicator of programmed cell death, and its triggering by loss of cell attachment is an established means of detecting anoikis. Adherent cells were prepared as above. […]

cleaved caspase 3 [2] = test: Western blot for cleaved caspase 3, M14; conditions: up to 10 µM, three days
Method: as §1, §2

**Q.** Which results are given for c1ccc2sc(-c3ccc(CNc4ccc5nnnn5n4)o3)nc2c1 [Dxr2-017]?
**A.** effect on cell cycle parameters (M14 cells): little-to-no change in cell cycle parameters; IC50 (SK-MEL-5; Homo sapiens, 192 h, SK-MEL-5 melanoma, mean ± SEM of three experiments): 51 ± 11 nM; fold efficacy relative to bone marrow stem cells treated at 40 µM (SK-MEL-5; SK-MEL-5 IC50 versus eight-day bone marrow treatment at 40 µM): > 750 fold; floating cell population, percentage to total cells (SK-MEL-5 cells): 60.8 ± 10.4%; cleaved caspase 3, adherent and floating cells combined (cleaved caspase 3 [1]): clear formation was observed; cleaved caspase 3, adherent cells only (cleaved caspase 3 [1]): did not see any induction of cleaved caspase 3; also recorded: no formation of cleaved caspase 3; cadherin expression (pan-cadherin): decreased cadherin expression in a concentration-dependent manner; cleaved caspase 3, adherent and floating cells combined (cleaved caspase 3 [2]): clear formation was observed; cleaved caspase 3, adherent cells only (cleaved caspase 3 [2]): did not see any induction of cleaved caspase 3; also recorded: no formation of cleaved caspase 3
